Entries after “also recorded” stand apart in the source; their conditions may differ. No end group written: not given here.

The values that follow come from US20160304577A1, “GLYCOSYLATED GLYCOPHORIN PEPTIDES” (GLYCOTOPE GMBH, priority 2013, published 2016).

The test system of one assay is DCs. Put plainly: Presentation of biotin-conjugated GPA-derived peptides on DCs, fluorescence-labeled streptavidin, flow cytometry. The class given is cell-based, human. How it is done:
DCs were loaded with the biotin-conjugated peptides GPA1-9(3TF), GPA9-25(4TF), GPA9-25(6TF), GPA26-43(2TF), GPA34-55(4TF), GPA41-55(3TF), GPA45-55(2TF), GPA48-55(1TF) and GPA48-63(1TF). Presentation was determined by fluorescence-labeled streptavidin. The subpopulations of CD80+CD209+, CD80+CD209− and CD80−CD209− mature DCs were analyzed separately. Mean percentages+SD of one experiment performed in duplicates are shown.
DCs were loaded with the biotin-conjugated peptides. Presentation was determined by fluorescence-labeled streptavidin. The subpopulations CD80+CD209+, CD80+CD209- and CD80−CD209− mature DCs were analyzed separately. Mean percentages+SD of one experiment performed in triplicates are shown.
For that reason the GPA-derived TF-α glycosylated peptides GPA1-9(3TF), GPA9-25(4TF), GPA9-25(6TF), GPA26-43(2TF), GPA34-55(4TF), GPA41-55(3TF), GPA45-55(2TF), GPA48-55(1TF) and GPA48-63(1TF) were employed.
By using four different glycosylation variants of GPA26-43, it was aimed to investigate the effect of TFα-glycosylation on the presentation in more detail.
On the technique in general: In flow cytometry, cells or beads pass a laser one at a time.

Assay [1] concerns TFα-specific T cells. Kind of assay: IFN-γ ELISPOT, restimulation of B. ovatus-primed T cells with peptide-loaded DCs. In kind it is cell-based, human. The note with it: T cells primed with TFα-positive B. ovatus strain. Here is the method:
PBMCs of a healthy donor were primed with DCs loaded with TFα positive B. ovatus (BO+). Restimulation with GPA26-43(2TF) and GPA34-55(4TF) was analyzed by IFN-γ ELISPOT. The mean numbers of IFN-γ+spots+SEM of one experiment performed in triplicates is shown.
In order to analyze whether DCs loaded with peptide GPA26-43(2TF) or GPA34-55(4TF) can activate TFα-specific T cells, they were used for restimulation of T cells primed with a TFα-positive B. ovatus strain. Restimulation was detected by an IFN-γ ELISPOT assay. […] Since TFα is the only overlapping structure between the TFα-positive B. ovatus strain and the TFα-glycosylated GPA-derived peptides GPA26-43(2TF) and GPA34-55(4TF), it is obvious that the restimulated T cells were TFα-specific. […] This immune response, when elicited in a human being, can protect against cells carrying said carbohydrate structure. In the case of tumor-associated carbohydrate antigens such as TFα, vaccination against and treatment of cancer comprising cells carrying said carbohydrate antigen is possible with these glycosylated glycophorin peptides. Therefore, based on this experiment, GPA-derived TF-α glycosylated peptides are proposed for the use of treating or preventing cancer in human.

Assay [2] relates to dendritic cells. Put plainly: Effect of antigen processing inhibitors on presentation of TFα derived from aGPA (flow cytometry, Nemod-TF1). In kind it is cell-based, human. The note with it: DCs treated with inhibitor of lysosomal acidification prior to loading with aGPA. How it is done: DCs were pretreated with indicated concentrations of chloroquine (a) and ammonium chloride (b) before aGPA was added. Presentation of TFα was analyzed by flow cytometry using Nemod-TF1. Data are presented as the percentage of the relative presentation which was calculated according to the following formula: (percentage of positive cells incubated with antigen processing inhibitors)/(percentage of positive cells of untreated cells)×(100)). The means of one experiment performed in duplicates are shown.
In order to characterize the processing pathway of aGPA, dendritic cells were treated with inhibitors of lysosomal acidification, chloroquine and ammonium chloride (MHC class II processing) prior to loading. […] These findings verify that aGPA is processed in the cell before TFα is presented on the cell surface.

For assay [3], the system named is TFα-specific T cells. Put plainly: IFN-γ ELISPOT, second restimulation of TFα-specific T cells with aGPA- or GPA-loaded dendritic cells. In kind it is cell-based. The note with it: T cells primed with TFα positive B. ovatus strain and restimulated with lysate of TFα positive human cell line. How it is done: PBMCs of a healthy donor were twice primed with DCs loaded with a TFα positive B. ovatus strain (BO+). Restimulation with DCs loaded with lysate of a TFα positive (HC+) or TFα negative (HC−) human cell line was analyzed by IFN-γ ELISPOT. T cells restimulated with TFα positive cells were further cultivated and restimulated in a second round with aGPA- and GPA-loaded DCs, which was analyzed by IFN-γ ELISPOT. The mean numbers of IFN-γ+spots+SEM of one experiment performed in triplicates (1st restimulation) or of four replicates (2nd restimulation) are shown. IFN-γ+spots of PBMCs without restimulation were subtracted. Statistical analysis was performed using 1 way ANOVA (***: P<0.001).
In order to analyze whether asialoglycophorin A (aGPA)-loaded dendritic cells (DCs) have the potential to activate TFα-specific T cells, a T cell culture, which was primed with a TFα positive B. ovatus strain and restimulated with lysate of a TFα positive human cell line, was restimulated in a second round with dendritic cells loaded with either aGPA or glycophorin A (GPA).

For assay [4], the system named is dendritic cells. Put plainly: Flow cytometry of TFα presentation on dendritic cells loaded with aGPA or GPA (Nemod-TF1, Nemod-TF2). In kind it is cell-based, human. How it is done: GPA- and aGPA-loaded cells were stained with Nemod-TF1 and Nemod-TF2 and analyzed by flow cytometry. The subpopulations of CD80+CD209+, CD80+CD209− and CD80−CD209− cells were analyzed separately. The mean percentages of positive cells+SD of one experiment performed in duplicates are shown.
DCs were loaded with aGPA and GPA for indicated time periods. Presentation of TFα was analyzed on the subpopulations of CD80+CD209+ (a), CD80+CD209− (b) and CD80−CD209− (c) DCs by flow cytometry using Nemod-TF1. Data are presented as mean percentage of positive cells±SD of one experiment performed in duplicates.
In order to analyze the antigen presentation of aGPA in more detail, dendritic cells loaded with aGPA and GPA were analyzed by flow cytometry using anti-TFα antibodies and for co-staining anti-CD80 and anti-CD209 antibodies.
In order to test whether aGPA is unspecifically attached to the cell surface of DCs, aGPA was added 10 min prior to the analysis of surface presentation with the TFα-specific antibody Nemod-TF1 and compared to TFα-presentation after loading times of 1 and 2 d. […] This is important since the presentation on MHC proteins is crucial for activation of TF-α specific T cells.

As to “GPA26-43(1TFaa37): glycosylation variant of GPA26-43, biotin-conjugated peptide (NDTHKRDTYAAT(TF‑α)PRAHEV; also: biotin-conjugated, site not given here)”, the “presentation of peptide on DCs (percentage of positive cells)” value in the assay on DCs is “less effectively presented than GPA26-43(1TFaa33) and GPA26-43, but more effectively than GPA26-43(2TF)”. On the same count and under the same terms, in the case of “GPA26-43: the unglycosylated GPA26-43, biotin-conjugated peptide (NDTHKRDTYAATPRAHEV; also: biotin-conjugated, site not given here) [reference compound]” it was “presented at a similar percentage”.

“GPA26-43(2TF): biotin-conjugated GPA-derived TF-α glycosylated peptide (NDTHKRDTYAATPRAHEV; also: 2 TF-α glycans, sites not given here, biotin-conjugated, site not given here)”: the “presentation of peptide on DCs (percentage of positive cells)” value with DCs is “strongest presentation on DCs; also recorded: better presentation on DCs than GPA34-55(4TF); also recorded: found to be presented on DCs”. The “activation of T cells on restimulation with peptide-loaded DCs (IFN-γ ELISPOT)” value in the assay on TFα-specific T cells [1] is recorded as “stronger activation of T cells compared to DCs loaded with GPA34-55(4TF)”. Turning to “GPA48-63(1TF): biotin-conjugated GPA-derived TF-α glycosylated peptide (VRTVYPPEEETGERVQ; also: 1 TF-α glycan, site not given here, biotin-conjugated, site not given here)”, the “presentation of peptide on DCs (percentage of positive cells)” value with DCs is listed as “strongest presentation on DCs”. Same read-out and setting: the entry for “GPA1-9(3TF): biotin-conjugated GPA-derived TF-α glycosylated peptide (SSTTGVAMH; also: 3 TF-α glycans, sites not given here, biotin-conjugated, site not given here)” is “strongest presentation on DCs”. Consider “GPA26-43(1TFaa33): glycosylation variant of GPA26-43, biotin-conjugated peptide (NDTHKRDT(TF‑α)YAATPRAHEV; also: biotin-conjugated, site not given here)”, for which the “presentation of peptide on DCs (percentage of positive cells)” value in the assay on DCs is “presented at a similar percentage”. `Cl.N` [ammonium chloride]: the “effect on presentation of TFα derived from aGPA” value with dendritic cells [2] is given as “blocked the presentation of TFα”. The same measure, in the same setting: in the case of `CCN(CC)CCCC(C)Nc1ccnc2cc(Cl)ccc12` (stereo not shown) [chloroquine] it was “blocked the presentation of TFα”.

B1: asialoglycophorin A (protein)
chain: SSTTGVAMHTSTSSSVTKSYISSQTNDTHKRDTYAATPRAHEVSEISVRTVYPPEEETGERVQLAHHFSEPEITLIIFGVMAGVIGTILLISTGIRRLIKKSPSDVKPLPSPDTDVPLSSVEIENPETSDQ
notes: asialoglycophorin A (aGPA)
With B1, the “activation of T cells on restimulation with loaded dendritic cells (IFN-γ ELISPOT)” value in the assay on TFα-specific T cells [3] is reported as “visible activation of T cells”. The “percentage of Nemod-TF1- and Nemod-TF2-positive cells (TFα presentation) on loaded DCs” value with dendritic cells [4] (CD80+CD209+, CD80+CD209− and CD80−CD209− DCs) is “increased percentage of Nemod-TF1- and Nemod-TF2-positive cells compared to GPA-loaded cells”. In the assay with dendritic cells [4] (added 10 min prior to analysis with Nemod-TF1, compared to loading times of 1 and 2 d, all three DC subpopulations), the “TFα presentation on DCs when added just before staining (unspecific attachment)” value is “no presentation was found”.

B2: glycophorin A (protein)
chain: SSTTGVAMHTSTSSSVTKSYISSQTNDTHKRDTYAATPRAHEVSEISVRTVYPPEEETGERVQLAHHFSEPEITLIIFGVMAGVIGTILLISTGIRRLIKKSPSDVKPLPSPDTDVPLSSVEIENPETSDQ
notes: glycophorin A (GPA)
For the molecule B2, the “activation of T cells on restimulation with loaded dendritic cells (IFN-γ ELISPOT)” value in the assay with TFα-specific T cells [3] is on record as “almost no restimulation”.
